# Data taken from patent publication US20250388605A1, “HETEROBIFUNCTIONAL COMPOUNDS AND METHODS OF TREATING DISEASE” (Halda Therapeutics OpCo, Inc., priority 2022, published 2025).
# Columns and labels:
# [1] = test system: T-Rex 293 cell line SC3 cells having increased expression of androgen receptor protein due to exposure to doxycycline; experiment: Cellular growth inhibition, T-Rex 293 SC3 cells with doxycycline (increased androgen receptor expression), CellTiter-Glo; type: cell-based; settings: T-Rex 293 SC3 cells with 10 ng/mL doxycycline (increased androgen receptor expression), 72 hours, CellTiter-Glo 2.0
# Outline: (§1)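 Doxycycline (10 ng/mL) was either included or omitted to toggle wild-type androgen receptor expression in SC3 cells, a T-Rex 293 clone, grown in stripped-serum, phenol red-free medium. After 72 hours with compound, viable cells were quantified by CellTiter-Glo 2.0.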
# [2] = test system: T-Rex 293 cell line SC3 cells lacking increased expression of androgen receptor protein; experiment: Cellular growth inhibition, T-Rex 293 SC3 cells without doxycycline (no increased androgen receptor expression), CellTiter-Glo; type: cell-based; settings: T-Rex 293 SC3 cells not exposed to doxycycline (no increased androgen receptor expression), 72 hours
# Outline: as §1
# VCaP cells = experiment: Cellular growth inhibition assay for VCaP cells, CellTiter-Glo; type: cell-based, human; settings: 72 hours
# Outline: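 GI50 values come from four-parameter curve fits of luminescence data normalized to a zero baseline. Compound, in medium with 0.5% DMSO, was added one day after plating and left for 72 h before CellTiter-Glo 2.0 addition.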
# T47D cells = experiment: Cellular Growth Inhibition Assay for T47D Cells (CellTiter-Glo); type: cell-based, human; settings: 72 hours
# Outline: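 GI50 values derive from four-parameter regression of CellTiter-Glo 2.0 luminescence, using zero luminescence as baseline. Human breast cancer T47D cells (3000/well; DMEM, 10% FBS, 0.2 units/mL insulin) were exposed for 72 h to compound dilutions at 0.5% DMSO, with dosing starting 24 h after seeding.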
Compound,GI50 (VCaP cells; Homo sapiens) [nM],GI50 (T47D cells; Homo sapiens) [nM],GI50 (VCaP cells) [nM],GI50 (T47D cells) [nM],GI50 [1] [nM],GI50 [2] [nM]
"Cn1cc(-c2cc3c(cc2Oc2ccc(N4CC(CC5CN(c6ncc(C(=O)N[C@H]7C(C)(C)[C@H](Oc8ccc(C#N)c(Cl)c8)C7(C)C)cn6)C5)C4)cc2)CCC3(C)O)c2cc[nH]c2c1=O (stereo partly drawn) [Compound I-329, N-[3-(3-chloro-4-cyano-phenoxy)-2,2,4,4-tetramethyl-cyclobutyl]-2-[3-[[1-[4-[1-hydroxy-1-methyl-6-(6-methyl-7-oxo-1H-pyrrolo[2,3-c]pyridin-4-yl)indan-5-yl]oxyphenyl]azetidin-3-yl]methyl]azetidin-1-yl]pyrimidine-5-carboxamide]",< 500,> 3000,–,–,< 500,> 3000
Cn1cc(-c2cc(C(C)(C)O)ccc2Oc2ccc(N3CC(CC4CCN(c5cnc(C(=O)N[C@H]6C(C)(C)[C@H](Oc7ccc(C#N)c(Cl)c7)C6(C)C)cn5)CC4)C3)nc2)c2cc[nH]c2c1=O [Compound I-334],< 500,< 500,–,–,< 500,> 3000
Cn1cc(-c2cc(C(C)(C)O)ccc2Oc2ccc(N3CC(CC4CN(c5ccc(C(=O)N[C@H]6C(C)(C)[C@H](Oc7ccc(C#N)c(Cl)c7)C6(C)C)cc5)C4)C3)cc2)c2cc[nH]c2c1=O [Compound I-336],> 3000,< 500,–,–,< 500,> 3000
CCS(=O)(=O)Nc1ccc(Oc2ccc(N3CC(CC4CCN(c5ncc(C(=O)N[C@H]6C(C)(C)[C@H](Oc7ccc(C#N)c(Cl)c7)C6(C)C)cn5)CC4)C3)cc2)c(-c2cn(C)c(=O)c3[nH]ccc23)c1 [Compound I-337],< 500,< 500,–,–,< 500,> 3000
Cn1cc(-c2cc(C(C)(C)O)ccc2Oc2ccc(N3CC(CC4CCN(c5ccc(C(=O)N[C@H]6C(C)(C)[C@H](Oc7ccc(C#N)c(Cl)c7)C6(C)C)nc5)CC4)C3)cc2)c2cc[nH]c2c1=O [Compound I-338],> 3000,500 to 1500,–,–,> 3000,> 3000
Cn1cc(-c2cc(C(C)(C)O)ccc2Oc2ccc(CCC3CCN(c4cnc(C(=O)N[C@H]5C(C)(C)[C@H](Oc6ccc(C#N)c(Cl)c6)C5(C)C)cn4)CC3)nc2)c2cc[nH]c2c1=O [Compound I-341],–,–,< 500,< 500,< 500,< 500
"Cn1cc(-c2cc(C(C)(C)O)ccc2-n2cc(N3CC(CC4CCN(c5ncc(C(=O)NC6C(C)(C)C(Oc7ccc(C#N)c(Cl)c7)C6(C)C)cn5)CC4)C3)ccc2=O)c2cc[nH]c2c1=O (stereo not drawn) [Compound I-344, N-[3-(3-chloro-4-cyano-phenoxy)-2,2,4,4-tetramethyl-cyclobutyl]-2-[4-[[1-[1-[4-(1-hydroxy-1-methyl-ethyl)-2-(6-methyl-7-oxo-1H-pyrrolo [2,3-c]pyridin-4-yl)phenyl]-6-oxo-3-pyridyl]azetidin-3-yl]methyl]-1-piperidyl]pyrimidine-5-carboxamide]",> 3000,500 to 1500,–,–,> 3000,> 3000
Cn1cc(-c2cc(C(C)(C)O)ccc2Oc2ccc(N3CC(CC4CCN(c5cnc(C(=O)N[C@H]6C(C)(C)[C@H](Oc7ccc(C#N)c(Cl)c7)C6(C)C)cn5)CC4)C3)cn2)c2cc[nH]c2c1=O [Compound I-346],< 500,< 500,–,–,< 500,> 3000

# More lines, main results first:
GI50 (VCaP cells; Homo sapiens) [nM],GI50 (T47D cells; Homo sapiens) [nM],GI50 (VCaP cells) [nM],GI50 (T47D cells) [nM],Compound,GI50 [1] [nM],GI50 [2] [nM]
–,–,< 500,< 500,Cn1cc(-c2cc(C(C)(C)O)ccc2Oc2ccc(N3CC4(C3)CN(c3ncc(C(=O)N[C@H]5C(C)(C)[C@H](Oc6ccc(C#N)c(Cl)c6)C5(C)C)cn3)C4)cc2)c2cc[nH]c2c1=O [Compound I-330],< 500,< 500
–,–,< 500,< 500,Cn1cc(-c2cc(C(C)(C)O)ccc2Oc2ccc(C3CC(N4CC5(CN(c6ncc(C(=O)N[C@H]7C(C)(C)[C@H](Oc8ccc(C#N)c(Cl)c8)C7(C)C)cn6)C5)C4)C3)cc2)c2cc[nH]c2c1=O (stereo partly drawn) [Compound I-331],< 500,< 500
< 500,< 500,–,–,"Cn1cc(-c2cc(C(C)(C)O)ccc2Oc2ccc(N3CC(CC4CCN(c5ncc(C(=O)N[C@H]6C(C)(C)[C@H](Oc7ccc(C#N)c(Cl)c7)C6(C)C)cn5)CC4)C3)nc2)c2cc[nH]c2c1=O [Compound I-333, N-[3-(3-chloro-4-cyano-phenoxy)-2,2,4,4-tetramethyl-cyclobutyl]-2-[4-[[1-[5-[4-(1-hydroxy-1-methyl-ethyl)-2-(6-methyl-7-oxo-1H-pyrrolo[2,3-c]pyridin-4-yl)phenoxy]-2-pyridyl]azetidin-3-yl]methyl]-1-piperidyl]pyrimidine-5-carboxamide]",< 500,> 3000
–,–,500 to 1500,< 500,Cn1cc(-c2cc(C(C)(C)O)ccc2Oc2ccc(CCC3CCN(c4cnc(C(=O)N[C@H]5C(C)(C)[C@H](Oc6ccc(C#N)c(Cl)c6)C5(C)C)cn4)CC3)cc2)c2cc[nH]c2c1=O [Compound I-335],> 3000,> 3000
> 3000,< 500,–,–,Cn1cc(-c2cc(C(C)(C)O)ccc2Oc2ccc(OC[C@@H]3CCCN(c4ncc(C(=O)N[C@H]5C(C)(C)[C@H](Oc6ccc(C#N)c(Cl)c6)C5(C)C)cn4)C3)cc2)c2cc[nH]c2c1=O [Compound I-339],< 500,> 3000
–,–,> 3000,< 500,Cn1cc(-c2cc(C(C)(C)O)ccc2Oc2ccc(OC[C@@H]3CCCN(c4cnc(C(=O)N[C@H]5C(C)(C)[C@H](Oc6ccc(C#N)c(Cl)c6)C5(C)C)cn4)C3)cc2)c2cc[nH]c2c1=O [Compound I-340],> 3000,> 3000
–,–,< 500,< 500,Cn1cc(-c2cc(C(C)(C)O)ccc2Oc2ccc(N3CC4(CCCN(c5cnc(C(=O)N[C@H]6C(C)(C)[C@H](Oc7ccc(C#N)c(Cl)c7)C6(C)C)cn5)C4)C3)cc2)c2cc[nH]c2c1=O [Compound I-342],< 500,> 3000
–,–,< 500,< 500,Cn1cc(-c2cc(C(C)(C)O)ccc2Oc2ccc(N3CC4(CCCN(c5ncc(C(=O)N[C@H]6C(C)(C)[C@H](Oc7ccc(C#N)c(Cl)c7)C6(C)C)cn5)C4)C3)cc2)c2cc[nH]c2c1=O [Compound I-343],< 500,> 3000
< 500,< 500,–,–,"Cn1cc(-c2cc(C(C)(C)O)ccc2Oc2ccc(N3CC(CC4CCN(c5ncc(C(=O)N[C@H]6C(C)(C)[C@H](Oc7ccc(C#N)c(Cl)c7)C6(C)C)cn5)CC4)C3)cn2)c2cc[nH]c2c1=O [Compound I-345, N-[3-(3-chloro-4-cyano-phenoxy)-2,2,4,4-tetramethyl-cyclobutyl]-2-[4-[[1-[6-[4-(1-hydroxy-1-methyl-ethyl)-2-(6-methyl-7-oxo-1H-pyrrolo [2,3-c]pyridin-4-yl)phenoxy]-3-pyridyl]azetidin-3-yl]methyl]-1-piperidyl]pyrimidine-5-carboxamide]",< 500,> 3000
< 500,< 500,–,–,Cn1cc(-c2cc(C(C)(C)O)ccc2Oc2ccc(N3CCC(CC4CN(c5ncc(C(=O)N[C@H]6C(C)(C)[C@H](Oc7ccc(C#N)c(Cl)c7)C6(C)C)cn5)C4)CC3)cc2)c2cc[nH]c2c1=O [Compound I-350],< 500,< 500
